Measured values: patent publication US20200390755A1, “COMPOUND FOR TREATING NERVOUS SYSTEM DISEASES AND USE THEREOF” (SHAANXI MICOT TECHNOLOGY CO., LTD., priority 2018, published 2020)

Assays:
Assay type in all cases: in vivo, mouse
N171-82Q HD mice [1] = assay: Slope balance beam experiment, HD mice; conditions: 5 mg/kg/d intragastric
Experimental: (§1) 7-week-old N171-82Q HD male mice were paired with female B6C3F1/J hybrid mice to obtain newborn mice. From 21 days of age, male mice were housed in separate cages. 0.5 cm of mouse tail tissue was removed to extract DNA to determine the genotype of the mouse, such that N171-82Q HD mice and WT mice needed for the experiment were obtained. The mice were randomly divided into WT Vehicle group (normal mice), WT test compound group (administration group of normal mice, 5 mg/kg/d, n=10), HD Vehicle group (blank group of HD mice, n=15), HD test compound group (administration groups 1-5 of HD mice, 5 mg/kg/d, n=10). The test compound was suspended in 1% CMC-Na solution and administered by intragastric administration until the end of the study. The weights of the mice were measured every week. Behavioral tests were performed at 12 weeks, 18 weeks, and 24 weeks of age to investigate motor function. At 20 weeks, 3 samples of tissue from each group were used for western blotting and immunohistochemistry. At 24 weeks, MRI scans were performed. At the end of the study, the effect of the test compound on the mortality of mice was evaluated.
(§2) The software Sigmaplot 13.0 was used for statistical analysis of the data, and the data of each group was expressed as mean standard error (x±SEM). Behavioral test results were analyzed using two-way (genotype and processing factor) ANOVA and post-ho tests, the comparison and statistics of weight data were performed using two-way (genotype and age) ANOVA of repeated measures, and mortality was counted using Kaplan-Meier method. Other measurement data were analyzed by one-way ANOVA. P<0.05 was considered statistically significant.
(§3) The motor function of mice was evaluated by the rotarod experiment and three types of balance beam experiments. The shorter the time for mouse to cross the balance beam, and the longer the time to drop, the stronger the coordination ability of the mouse.
(§4) A square balance beam with a length of 100 cm and a width of 11 mm was placed at a 45-degree angle to the horizontal ground. A black box (12×12×12 cm) was placed at the end of the balance beam, and the starting platform was illuminated by bright lights. Spacers were placed under the balance beam to provide cushioning in case that the animal falls off the beam. One hour before the test, the mice were trained to cross the beam three times at one-eighth, one-quarter, and full-length distances from the black box, respectively. If the mice stopped walking during training, they were gently pressed with long forceps on the tail to encourage movement. After the training experiment, the mice rested for at least one hour in an undisturbed environment. In the experiment, the maximum time for each mouse to cross the balance beam was set to 60 seconds. If the time for crossing the beams was greater than 60 seconds, it was recorded as 60 seconds.

N171-82Q HD mice [2] = assay: High-altitude balance beam (11 mm) experiment 1, HD mice; conditions: 5 mg/kg/d intragastric
Experimental: as §1, §2, §3, §4
a round balance beam with a length of 80 cm and a diameter of 11 mm was place at a height of about 50 cm from the ground. The following steps are the same as the slope balance beam experiment.

N171-82Q HD mice [3] = assay: DARPP32 protein level in striatum by Western blotting, HD mice; conditions: 5 mg/kg/d until 25 weeks, WT Vehicle = 100, n = 3
Experimental: as §1
Dopamine and cAMP-regulated phosphoprotein (DARPP-32), with a molecular weight of 32 kDa, is a basic component of dopamine signaling cascade. A pathological feature of HD is the massive loss of MSNs which can express high level of DARPP32, in the striatum. Therefore, DARPP32 can be used as a marker of nerve damage and nerve dysfunction in the HD model. After the behavioral evaluation of the mice in each experimental group was completed and the administration continued until 25 weeks, 3 mice were taken from each group to separate hippocampal tissue, striatum, and neurocortex tissue. The total protein in the striatum tissue was extracted, and the protein level of DARPP 32 was detected by Western blotting experiment.
The striatum tissue block was lysed in 100 μL of lysis buffer (RIPA buffer 10 mL, protease inhibitor 100 μL, phosphatase inhibitor 100 μL) on ice for 30 min, and then pulverized with an ultrasonic cell pulverizer, and then centrifuged at 14000 rpm for 20 min at 4° C. The supernatant was transferred to a new 1.5 mL centrifuge tube. The protein was extracted, and the protein level of DARPP 32 was detected by Western blotting.

N171-82Q HD mice [4] = assay: Immunohistochemical analysis of mHtt protein aggregates in neurocortex (EM48); conditions: 5 mg/kg/d until 25 weeks, six visual fields, n = 3
Experimental: as §1
After the behavioral evaluation of the mice in each experimental group was completed and the administration continued until 25 weeks, 3 mice were taken from each group for […]. The right brain isolated from the mice was post-fixed in 4% paraformaldehyde for 24 h. The post-fixed brain tissue was put into 30% sucrose solution to allow it to sink to the bottom, and then brain slices with a thickness of 35 m were cut along the crown with a freezing microtome and placed in DPBS for storage. The stored brain slices were rinsed once with PBS, and blocked with 1 mL goat serum+9 mL PBS+1% TritonX-100 at room temperature on a shaker for 2˜3 h. After blocking, the brain slices were rinsed for 3 times with PBS, 5 min each time. Brain slices were taken out with a small brush and placed in a 24-well plate with primary antibody (anti-Huntingtin, clone mEM48, 1:25, mouse, prepared with blocking solution) for overnight incubation on a shaker in cold room at […]. After washing with PBS, brain slices were placed in a 24-well plate with secondary antibody (555, anti-mouse) for washing, and incubated on a shaker at room temperature for 2 h. After washing with PBS, brain slices was placed in a 24-well plate containing 800 μL DAPI (prepared with PBS, 1:10000) for staining on a shaker at room temperature for 10 min. The brain slices were taken out and placed in a 24-well plate containing 800 μL of PBS for washing on a shaker at room temperature for 10 min. The slide was placed flat on the experimental table with the front side facing upwards, and PBS was added dropwise on the slide to expand the brain slice in PBS. After drying, the mHtt protein was immunofluorescently stained with EM48 antibody (anti-Huntingtin) and photographed for observation.
After immunofluorescence staining of brain tissue, cells with mHtt protein aggregation in six visual fields in the right neurocortex were counted, and the average value was taken for analysis and statistics. A representative image of a neurocortex immunostained with the EM48 antibody for test compound example 1 is shown in FIG. 5, in which the scale bars are 50 μm, and the light-colored dots are cells with mHtt protein aggregation.

For `O=c1cc(-c2ccc(N3CCCCC3)cc2)oc2c(O)c(O)ccc12` [Example 1, 7,8-dihydroxy-2-(4-(piperidin-1-yl)phenyl)-4H-chromen-4-one], the “Time for crossing the beams, slope balance beam” value (“Time … slope balance beam” for short) (N171-82Q HD mice [1]; 12 w) was 15.18 ± 3.95 s, the “Time … slope balance beam” value (N171-82Q HD mice [1]; 18 w) was 14.09 ± 3.18 s and the “Time … slope balance beam” value (N171-82Q HD mice [1]; 24 w) was 18.09 ± 6.02 s. The “Time for crossing the beams, high-altitude balance beam (11 mm)” value (from here on “Time for crossing the beams … (11 mm)”) (N171-82Q HD mice [2]; 12 w) was 8.20 ± 1.64 s, the “Time for crossing the beams … (11 mm)” value (N171-82Q HD mice [2]; 18 w) was 7.55 ± 2.42 s and the “Time for crossing the beams … (11 mm)” value (N171-82Q HD mice [2]; 24 w) was 9.18 ± 3.84 s. For the same compound, the “Relative intensity of DARPP32 protein” value (N171-82Q HD mice [3]) was 96.971 ± 3.607 and the “Average number of cells with mHtt protein aggregation” value (from here on “Average number of cells”) (N171-82Q HD mice [4]) was 152.500 ± 7.920.
For `COc1ccc2c(=O)cc(-c3ccc(N4CCCCC4)cc3)oc2c1OC` [Example 2, 7,8-dimethoxy-2-(4-(piperidin-1-yl)phenyl)-4H-chromen-4-one], the “Time … slope balance beam” value (N171-82Q HD mice [1]; 12 w) was 17.88 ± 2.83 s, the “Time … slope balance beam” value (N171-82Q HD mice [1]; 18 w) was 17.13 ± 4.76 s and the “Time … slope balance beam” value (N171-82Q HD mice [1]; 24 w) was 19.00 ± 6.84 s. The “Time for crossing the beams … (11 mm)” value (N171-82Q HD mice [2]; 12 w) was 8.98 ± 1.75 s, the “Time for crossing the beams … (11 mm)” value (N171-82Q HD mice [2]; 18 w) was 8.59 ± 2.18 s and the “Time for crossing the beams … (11 mm)” value (N171-82Q HD mice [2]; 24 w) was 9.68 ± 2.97 s. For the same compound, the “Relative intensity of DARPP32 protein” value (N171-82Q HD mice [3]) was 96.113 ± 2.681 and the “Average number of cells” value (N171-82Q HD mice [4]) was 158.449 ± 13.260.
With `CN(C)C1CCN(c2ccc(-c3cc(=O)c4ccc(O)c(O)c4o3)cc2)CC1` [Example 3, 2-(4-(4-(dimethylamino)piperidin-1-yl)phenyl)-7,8-dihydroxy-4H-chromen-4-one] the “Time … slope balance beam” value (N171-82Q HD mice [1]; 12 w) was 13.64 ± 6.90 s, the “Time … slope balance beam” value (N171-82Q HD mice [1]; 18 w) was 14.37 ± 5.81 s and the “Time … slope balance beam” value (N171-82Q HD mice [1]; 24 w) was 15.43 ± 4.58 s. For the same compound, the “Time for crossing the beams … (11 mm)” value (N171-82Q HD mice [2]; 12 w) was 7.94 ± 1.64 s, the “Time for crossing the beams … (11 mm)” value (N171-82Q HD mice [2]; 18 w) was 8.15 ± 1.96 s and the “Time for crossing the beams … (11 mm)” value (N171-82Q HD mice [2]; 24 w) was 8.38 ± 3.78 s. For the same compound, the “Relative intensity of DARPP32 protein” value (N171-82Q HD mice [3]) was 97.032 ± 3.887 and the “Average number of cells” value (N171-82Q HD mice [4]) was 148.794 ± 10.157.
`CC1(C)CCN(c2ccc(-c3cc(=O)c4ccc(O)c(O)c4o3)cc2)CC1` [Example 4, 2-(4-(4,4-dimethylpiperidin-1-yl)phenyl)-7,8-dihydroxy-4H-chromen-4-one] was tested, and the “Time … slope balance beam” value (N171-82Q HD mice [1]; 12 w) was 16.78 ± 5.98 s, the “Time … slope balance beam” value (N171-82Q HD mice [1]; 18 w) was 17.00 ± 5.65 s and the “Time … slope balance beam” value (N171-82Q HD mice [1]; 24 w) was 18.38 ± 5.10 s. The “Time for crossing the beams … (11 mm)” value (N171-82Q HD mice [2]; 12 w) was 8.57 ± 2.12 s, the “Time for crossing the beams … (11 mm)” value (N171-82Q HD mice [2]; 18 w) was 8.99 ± 2.29 s and the “Time for crossing the beams … (11 mm)” value (N171-82Q HD mice [2]; 24 w) was 9.38 ± 2.94 s. The “Relative intensity of DARPP32 protein” value (N171-82Q HD mice [3]) was 97.348 ± 3.438 and the “Average number of cells” value (N171-82Q HD mice [4]) was 155.286 ± 9.567.
In the case of `CC1CC(C)CN(c2ccc(-c3cc(=O)c4ccc(O)c(O)c4o3)cc2)C1` (stereo not shown) [Example 5, 2-(4-(3,5-dimethylpiperidin-1-yl)phenyl)-7,8-dihydroxy-4H-chromen-4-one], the “Time … slope balance beam” value (N171-82Q HD mice [1]; 12 w) is reported as 14.94 ± 6.59 s, the “Time … slope balance beam” value (N171-82Q HD mice [1]; 18 w) is reported as 16.67 ± 5.77 s and the “Time … slope balance beam” value (N171-82Q HD mice [1]; 24 w) is reported as 18.58 ± 7.34 s. For the same compound, the “Time for crossing the beams … (11 mm)” value (N171-82Q HD mice [2]; 12 w) was 8.04 ± 1.67 s, the “Time for crossing the beams … (11 mm)” value (N171-82Q HD mice [2]; 18 w) was 8.61 ± 3.25 s and the “Time for crossing the beams … (11 mm)” value (N171-82Q HD mice [2]; 24 w) was 9.77 ± 4.89 s. The “Relative intensity of DARPP32 protein” value (N171-82Q HD mice [3]) was 96.797 ± 3.018 and the “Average number of cells” value (N171-82Q HD mice [4]) was 151.687 ± 8.365.
